From ChEMBL document CHEMBL5226286, “The application of isatin-based multicomponent-reactions in the quest for new bioactive and druglike molecules” (Eur J Med Chem, 2021)
Converted amounts (≈) assume the structure as drawn.

Key:
NIH3T3 = test: Anticancer activity against mouse 3T3 cells measured after 48 hrs by MTT assay; assay type: functional, cell-based; details: NIH3T3, 48 h
HeLa = test: Anticancer activity against human HeLa cells measured after 48 hrs by MTT assay; assay type: functional, cell-based
Leishmania major = test: Antileishmanial activity against Leishmania major promastigotes incubated for 72 hrs by micrscopic analysis; assay type: functional

IC50 (HeLa): 4.8 µM
MIC (Leishmania major): 6.8 µM (≈ 3.84 µg/mL)
SMILES: O=C1/C(=C/c2cccc([N+](=O)[O-])c2)CCC[C@]12[C@H]1CCCN1[C@]1(C(=O)Nc3ccccc31)[C@H]2c1cccc([N+](=O)[O-])c1
IC50 (NIH3T3): 19.1 µM
